Measured values reported in patent US4761403A, “Lipoxygenase inhibiting compounds” (Abbott Laboratories, priority 1986, dated 1988).

Experiments:
Assay type in all cases: biochemical
5-lipoxygenase = target: T1, 5-lipoxygenase (Rattus norvegicus, UniProt P12527); test: 5-lipoxygenase inhibition, 20,000 g supernatant from homogenized RBL-1 cells, radiolabeled arachidonic acid; details: for IC50: 5-lipoxygenase, RBL-1 supernatant, 50% intercept from linear regression of % inhibition vs log concentration
T1 construct: 20,000 g supernatant from 7.5 million homogenized RBL-1 cells; endogenous in cells; host or cells: RBL-1 cells, 20,000 g supernatant of homogenate
T1 sequence (P12527 1-673): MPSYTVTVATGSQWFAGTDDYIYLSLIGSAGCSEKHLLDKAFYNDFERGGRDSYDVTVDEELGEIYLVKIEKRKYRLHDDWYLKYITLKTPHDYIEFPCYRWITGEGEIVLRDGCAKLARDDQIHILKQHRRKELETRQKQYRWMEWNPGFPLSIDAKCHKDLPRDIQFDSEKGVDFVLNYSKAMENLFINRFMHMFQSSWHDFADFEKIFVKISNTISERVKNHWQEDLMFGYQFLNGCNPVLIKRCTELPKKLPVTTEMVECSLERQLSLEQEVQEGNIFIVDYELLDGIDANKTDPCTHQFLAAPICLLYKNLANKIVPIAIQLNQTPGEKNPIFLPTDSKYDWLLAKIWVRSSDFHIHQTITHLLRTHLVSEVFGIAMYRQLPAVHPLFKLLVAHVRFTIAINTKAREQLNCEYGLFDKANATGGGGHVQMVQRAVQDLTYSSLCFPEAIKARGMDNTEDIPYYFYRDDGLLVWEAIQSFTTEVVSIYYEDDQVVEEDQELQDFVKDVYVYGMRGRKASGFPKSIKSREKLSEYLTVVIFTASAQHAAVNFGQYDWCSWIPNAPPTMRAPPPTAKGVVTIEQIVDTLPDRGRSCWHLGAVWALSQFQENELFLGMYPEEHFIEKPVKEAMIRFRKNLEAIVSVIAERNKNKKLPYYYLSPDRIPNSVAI
Protocol: (§1) The compounds of this invention are potent inhibitors of 5-, 12-, and 15-lipoxygenases. An assay to determine 5-lipoxygenase activity was performed in incubations containing various concentrations of the test compound and the 20,000 g supernatant from 7.5 million homogenized RBL-1 cells. Reactions were initiated by addition of radiolabeled arachidonic acid and terminated by acidification and ether extraction. Reaction products were separated from nonconverted substrate by thin layer chromatography and measured by liquid scintillation spectroscopy. Inhibition of 5-lipoxygenase activity was calculated as the 50% intercept from linear regression analysis of percentage inhibition versus log concentration plots.

12-lipoxygenase = target: T2, 12-lipoxygenase (Homo sapiens, UniProt P18054); test: 12-lipoxygenase inhibition, enzyme obtained from human platelets; details: read-out: Percent Inhibition, 12-Lipoxygenase
T2 construct: 12-lipoxygenase obtained from human platelets; from tissue; host or cells: human platelets
T2 sequence (P18054 1-663): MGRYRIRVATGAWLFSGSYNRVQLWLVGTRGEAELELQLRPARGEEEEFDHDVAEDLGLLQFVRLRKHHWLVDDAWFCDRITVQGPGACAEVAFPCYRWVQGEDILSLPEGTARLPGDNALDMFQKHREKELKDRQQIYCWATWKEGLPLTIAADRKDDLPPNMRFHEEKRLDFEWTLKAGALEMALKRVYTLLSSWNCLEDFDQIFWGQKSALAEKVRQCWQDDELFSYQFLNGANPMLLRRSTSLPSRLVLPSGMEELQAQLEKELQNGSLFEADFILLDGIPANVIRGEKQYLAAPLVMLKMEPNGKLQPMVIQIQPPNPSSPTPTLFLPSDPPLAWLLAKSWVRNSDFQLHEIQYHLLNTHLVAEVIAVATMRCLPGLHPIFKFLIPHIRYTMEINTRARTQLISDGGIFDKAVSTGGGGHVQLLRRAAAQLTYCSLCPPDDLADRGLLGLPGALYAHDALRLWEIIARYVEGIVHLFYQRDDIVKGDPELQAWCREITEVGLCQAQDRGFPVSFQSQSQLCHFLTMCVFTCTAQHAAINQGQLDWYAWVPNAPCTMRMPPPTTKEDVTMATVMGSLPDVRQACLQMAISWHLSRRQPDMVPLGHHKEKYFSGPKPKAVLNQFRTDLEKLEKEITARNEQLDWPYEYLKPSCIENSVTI
Protocol: as §1
(§2) Inhibitory activities of the compounds of this invention against 12- and 15-lipoxygenase can be determined in the foregoing assay in which 12-lipoxygenase obtained from human platelets, or 15-lipoxygenase obtained from soybean, is substituted for the […] containing cell supernatant fraction.

15-lipoxygenase = target: T3, 15-lipoxygenase (Glycine max, UniProt P08170); test: 15-lipoxygenase inhibition, enzyme obtained from soybean; details: read-out: Percent Inhibition, 15-lipoxygenase
T3 construct: 15-lipoxygenase obtained from soybean; from tissue; host or cells: soybean
T3 sequence (P08170 1-839): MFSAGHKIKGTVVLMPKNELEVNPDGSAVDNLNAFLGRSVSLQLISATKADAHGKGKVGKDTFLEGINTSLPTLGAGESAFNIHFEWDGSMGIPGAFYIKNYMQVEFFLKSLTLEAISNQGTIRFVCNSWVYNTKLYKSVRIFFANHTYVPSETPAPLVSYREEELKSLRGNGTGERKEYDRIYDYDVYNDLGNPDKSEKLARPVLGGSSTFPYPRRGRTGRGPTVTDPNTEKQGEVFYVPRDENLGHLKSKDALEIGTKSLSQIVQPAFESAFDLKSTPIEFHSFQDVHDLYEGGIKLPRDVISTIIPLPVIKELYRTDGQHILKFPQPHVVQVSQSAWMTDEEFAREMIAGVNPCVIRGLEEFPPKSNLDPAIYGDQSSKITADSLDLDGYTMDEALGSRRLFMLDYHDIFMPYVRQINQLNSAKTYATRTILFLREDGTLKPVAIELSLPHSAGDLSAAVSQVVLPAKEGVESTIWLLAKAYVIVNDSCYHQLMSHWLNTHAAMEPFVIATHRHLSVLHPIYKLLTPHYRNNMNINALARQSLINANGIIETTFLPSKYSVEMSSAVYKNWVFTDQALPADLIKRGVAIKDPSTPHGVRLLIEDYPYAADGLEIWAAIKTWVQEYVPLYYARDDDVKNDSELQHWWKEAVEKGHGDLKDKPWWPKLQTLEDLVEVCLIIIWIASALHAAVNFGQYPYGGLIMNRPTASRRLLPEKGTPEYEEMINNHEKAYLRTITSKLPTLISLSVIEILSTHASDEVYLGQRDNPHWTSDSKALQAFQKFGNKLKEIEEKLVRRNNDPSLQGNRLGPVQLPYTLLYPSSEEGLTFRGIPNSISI
Protocol: as §1, §2

Structure (SMILES) | IC50 (5-lipoxygenase) [nM] | inhibition at 10 µM (12-lipoxygenase) [%] | inhibition at 100 µM (12-lipoxygenase) [%] | inhibition at 10 µM (15-lipoxygenase) [%] | inhibition at 100 µM (15-lipoxygenase) [%] | inhibition at 100 µM (5-lipoxygenase; @ 100 uM, read-out: percentage inhibition of 5-lipoxygenase) [%] | inhibition at 30 µM (5-lipoxygenase; @ 30 uM, read-out: percentage inhibition of 5-lipoxygenase) [%]
Cc1ccc2c(ccc(=O)n2O)c1 [Example 9, 6-Methyl-1-hydroxyquinol-2-(1H)-one] | 1100 | – | – | – | – | – | –
O=c1ccc2cc([N+](=O)[O-])ccc2n1O [Example 11, 6-Nitro-1-hydroxyquinol-2(1H)-one] | 14000 | 67 | 90 | 2 | 32 | – | –
Cc1ccc2c(ccc(=O)n2O)c1[N+](=O)[O-] [Example 7, 6-Methyl-5-nitro-1-hydroxyquinol-2(1H)-one] | 2000 | – | – | – | – | – | –
COC(=O)c1cc2ccccc2n(O)c1=O [Example 2, 3-Carbomethoxy-1-hydroxyquinol-2(1H)-one] | 24000 | 66 | 94 | 5 | 14 | – | –
O=c1ccc2cc(-c3ccccc3)ccc2n1O [Example 12, 6-Phenyl-1-hydroxyquinol-2(1H)-one] | 340 | 97 | 98 | 97 | 100 | – | –
O=c1ccc2cc(Cl)ccc2n1O [Example 8, 6-Chloro-1-hydroxyquinol-2(1H)-one] | 870 | 95 | 97 | 95 | 100 | – | –
Cc1cc(=O)n(O)c2ccccc12 [Example 4, 4-Methyl-1-hydroxyquinol-2(1H)-one] | 1400 | – | – | – | – | – | –
COc1ccc2c(c1)c(Cl)cc(=O)n2O [Example 5, 4-Chloro-6-methoxy-1-hydroxyquinol-2(1H)-one] | 1600 | – | – | – | – | – | –
O=c1c(Br)cc2ccccc2n1O [Example 3, 3-Bromo-1-hydroxyquinol-2-(1H)-one] | 4200 | – | – | – | – | – | –
COc1ccc2c(ccc(=O)n2O)c1 [Example 10, 6-Methoxy-1-hydroxyquinol-2-(1H)-one] | 1500 | 90 | 97 | 62 | 94 | – | –
O=c1ccc2ccccc2n1O [Example 1, 1-hydroxyquinol-2-(1H)-one] | 5300 | 93 | 98 | 59 | 95 | – | –
O=c1ccc2c([N+](=O)[O-])cccc2n1O [Example 6, 5-Nitro-1-hydroxyquinol-2(1H)-one] | 3700 | 83 | 98 | 27 | 98 | – | –

Now from value to compound:

IC50 (5-lipoxygenase) [nM] | inhibition at 10 µM (12-lipoxygenase) [%] | inhibition at 100 µM (12-lipoxygenase) [%] | inhibition at 10 µM (15-lipoxygenase) [%] | inhibition at 100 µM (15-lipoxygenase) [%] | inhibition at 100 µM (5-lipoxygenase; @ 100 uM, read-out: percentage inhibition of 5-lipoxygenase) [%] | inhibition at 30 µM (5-lipoxygenase; @ 30 uM, read-out: percentage inhibition of 5-lipoxygenase) [%] | Structure (SMILES)
3900 | – | – | – | – | – | – | Cc1cn(O)c(=O)c2ccccc12 [Example 32, 4-Methyl-2-hydroxy-quinol-1(2H)-one]
– | – | – | – | – | 54 | – | O=c1c2ccccc2cc(O)n1O [Example 28, 2,3-Dihydroxyquinol-1(2H)-one]
– | 93 | 98 | 40 | 93 | – | – | CC(C)c1cc2ccccc2n(O)c1=O [Example 16, 3-Isopropyl-1-hydroxy-quinol-2(1H)--one]
2500 | 90 | 98 | 20 | 45 | – | – | COc1ccc2ccn(O)c(=O)c2c1 [Example 34]
2500 | 96 | 98 | 13 | 60 | – | – | O=c1c2ccccc2c2ccccc2n1O [Example 15, 3,4-Benzo-1-hydroxyquinol-2(1H)-one]
6000 | – | – | – | – | – | – | O=c1c2ccccc2ccn1O [Example 27, 2-hydroxyquinol-1(2H)-one]
980 | 94 | 97 | 61 | 97 | – | – | Cc1ccc2ccc(=O)n(O)c2c1 [Example 13, 7-Methyl-1-hydroxyquinol-2(1H)-one]
2600 | 89 | 96 | 43 | 94 | – | – | O=c1c2ccccc2c(Br)cn1O [Example 29, 4-Bromo-2-hydroxyquinol-1(2H)-one]
450 | 95 | 99 | 14 | 50 | – | – | O=c1c2ccccc2c(-c2ccccc2)cn1O [Example 31, 4-Phenyl-2-hydroxyquinol-1(2H)-one]
1500 | – | – | – | – | – | – | O=c1c2ccccc2c(-c2ccccc2)c(-c2ccccc2)n1O [Example 35]
840 | – | – | – | – | – | – | O=c1ccc2c3ccccc3ccc2n1O [Example 14, 5,6-Benzo-1-hydroxyquinol-2(1H)-one]
– | 54 | 83 | 10 | 12 | – | 32 | O=c1c2ccccc2c([N+](=O)[O-])cn1O [Example 30, 4-Nitro-2-hydroxyquinol-1(2H)-one]
2400 | – | – | – | – | – | – | Cc1cccc2c(=O)n(O)ccc12 [Example 33, 5-Methyl-2-hydroxyquinol-2(1H)-one]
